Results reported in patent US12350269B2 (Alexion Pharmaceuticals, Inc., priority 2015, dated 2025).

Legend:
[1] = test system: ibrutinib-sensitive primary CLL cells; assay: BrdU proliferation assay, primary CLL cells of ibrutinib responders; format: cell-based, human; settings: 250 nM, combined stimulation, day 8
[2] = test system: primary CLL cells; assay: Primary CLL cell viability assay (propidium iodide, 72 hours); format: cell-based, human
Procedure: (§1) Isolated CLL cells were cultured in RPMI-1640 with 15% fetal bovine serum (Gibco, Grand Island, NY, USA), penicillin (100 IU), and streptomycin (100 μg/mL), at a density of 1×10^7 cells/mL in the presence or absence of […] CpG, 100 ng/mL CD40L, 10 ng/mL IL-4. Anti-IgM stimulation was conducted with plate-bound anti-IgM (10 μg/mL). CLL cells were stimulated with 10 ng/mL IL-6 (R&D Systems, Minneapolis, MN), to detect the phosphorylation of JAK1/JAK2 (Cell Signaling Technology, Danvers, MA) and STAT3 (Cell Signaling Technology, Danvers, MA, USA).
Ten thousand events in a live cell gate were counted by a FACS LSR2 (BD Biosciences) and the data was normalized to the matched vehicle control for each specimen (100%). IC50 was then generated using the GraphPad Prism 6 program (San Diego, CA, USA).

[3] = target: TSSK; assay: Purified kinase assay (Millipore); format: biochemical; settings: 300 nM ATP
[4] = test system: SYK; assay: Healthy normal human whole blood assay: B-cell, BCR stimulation, pERK Y204 readout; format: cell-based
[5] = target: T1, RSK2 (Homo sapiens, UniProt P51812); assay: Purified kinase assay (Millipore); format: biochemical; settings: 300 nM ATP
T1 construct: purchased Millipore
Procedure: (§2) Purified Kinase Assays: Performed at Millipore at a fixed concentration of 300 nM ATP. A 10-point concentration curve was used to determine IC (Inhibitory Concentration).

[6] = target: T2, FMS (Homo sapiens, UniProt P07333); assay: Purified kinase assay (Millipore); format: biochemical; settings: 300 nM ATP
T2 construct: purchased Millipore
Procedure: as §2

[7] = target: T3, MST2 (Homo sapiens, UniProt Q13188); assay: Purified kinase assay (Millipore); format: biochemical; settings: 300 nM ATP
T3 construct: purchased Millipore
Procedure: as §2

[8] = target: T4, MST1 (Homo sapiens, UniProt Q13043); assay: Purified kinase assay (Millipore); format: biochemical; settings: 300 nM ATP
T4 construct: purchased Millipore
Procedure: as §2

[9] = target: T5, MARK1 (Homo sapiens, UniProt Q9P0L2); assay: Purified kinase assay (Millipore); format: biochemical; settings: 300 nM ATP
T5 construct: purchased Millipore
Procedure: as §2

[10] = target: T6, RET (Homo sapiens, UniProt P07949); assay: Purified kinase assay (Millipore); format: biochemical; settings: 300 nM ATP
T6 construct: purchased Millipore
Procedure: as §2

[11] = target: T7, RSK4 (Homo sapiens, UniProt Q9UK32); assay: Purified kinase assay (Millipore); format: biochemical; settings: 300 nM ATP
T7 construct: purchased Millipore
Procedure: as §2

[12] = target: T8, FLT3 (Homo sapiens, UniProt P36888); assay: Purified kinase assay (Millipore); format: biochemical; settings: 300 nM ATP
T8 construct: purchased Millipore
Procedure: as §2

[13] = target: T9, TYK2 (Homo sapiens, UniProt P29597); assay: Purified kinase assay (Millipore); format: biochemical; settings: 300 nM ATP
T9 construct: purchased Millipore
Procedure: as §2

[14] = target: T10, PAR1B-a (Homo sapiens, UniProt Q7KZI7); assay: Purified kinase assay (Millipore); format: biochemical; settings: 300 nM ATP
T10 construct: purchased Millipore
Procedure: as §2

[15] = target: T11, ITK (Homo sapiens, UniProt Q08881); assay: Purified kinase assay (Millipore); format: biochemical; settings: 300 nM ATP
T11 construct: purchased Millipore
Procedure: as §2

[16] = target: T12, FLT4 (Homo sapiens, UniProt P35916); assay: Purified kinase assay (Millipore); format: biochemical; settings: 300 nM ATP
T12 construct: purchased Millipore
Procedure: as §2

[17] = target: T13, ARK5 (Homo sapiens, UniProt O60285); assay: Purified kinase assay (Millipore); format: biochemical; settings: 300 nM ATP
T13 construct: purchased Millipore
Procedure: as §2

[18] = target: T14, CHK1 (Homo sapiens, UniProt O14757); assay: Purified kinase assay (Millipore); format: biochemical; settings: 300 nM ATP
T14 construct: purchased Millipore
Procedure: as §2

[19] = target: T15, MLK1 (Homo sapiens, UniProt P80192); assay: Purified kinase assay (Millipore); format: biochemical; settings: 300 nM ATP
T15 construct: purchased Millipore
Procedure: as §2

[20] = target: T16, GCK (Homo sapiens, UniProt Q12851); assay: Purified kinase assay (Millipore); format: biochemical; settings: 300 nM ATP
T16 construct: purchased Millipore
Procedure: as §2

[21] = test system: anti-IgM induced signalling pathways; assay: Primary CLL cells: B cell receptor induced signalling (immunoblotting, flow cytometry); format: cell-based; settings: primary human CLL cells
Procedure: as §1

[22] = target: T17, JAK2 (Homo sapiens, UniProt O60674); assay: Purified kinase assay (Millipore); format: biochemical; settings: 300 nM ATP
T17 construct: purchased Millipore

[23] = test system: JAK1/3; assay: Healthy normal human whole blood assay: T-cell, IL2 stimulation, pSTAT5 Y694 readout; format: cell-based
[24] = test system: PKC; assay: Healthy normal human whole blood assay: B-cell, PMA stimulation, pERK Y204 readout; format: cell-based
[25] = test system: 15 DLBCL cell lines; assay: DLBCL cell line panel: caspase 3 cleavage and Edu incorporation by FACS; format: cell-based
Procedure: DLBCL Cell Line Viability Assays: Cell lines, purchased from ATCC, were screened using the CellTiter Glo (Promega) assay in 384 well plates using a ten-point concentration response curve to generate IC50's. Each IC50 value is an average of at least four replicate experiments. Subsequent analysis using a FACS based caspase 3 cleavage detection kit (BD Biosciences) and Edu incorporation were performed.
In a panel of 15 cell lines representing both ABC and GCB subtypes, 9 underwent apoptosis and an additional 2 underwent cell cycle arrest.
FIG. 1 and FIG. 2 depicts bar graphs that show the percent inhibition of Edu incorporation and percent induction of caspase 3 cleavage by FACS analysis, respectively.

[26] = test system: 270 kinase panel; assay: 270 kinase panel screen (Millipore); format: biochemical; settings: the 24 kinases listed in Table 1
[27] = test system: IL4 signaling; assay: Phase 1 study: whole blood PD, IL4 signaling; format: in vivo; settings: Homo sapiens; 40 mg/day; read-out: % Inh. IL4 (Cmin-Cmax) Extrapolated from PK/PD fit of all data
Procedure: Human Whole Blood Assays: Inhibition of SYK- and JAK-dependent and independent signaling was determined by stimulating human whole blood with various agonists against BCR and cytokine receptors. 100 μL aliquots of heparinized healthy human whole blood was stimulated as previously described (Coffey et al, J. of Pharm. and Experimental Therapeutics, 351:538-548, 2014), using an 8-point concentration curve to determine IC50's. Signaling and activation responses were determined by Fluorescence-activated cell sorting (“FACS”). For the clinical trial, whole blood samples were collected prior to and after dosing. Percent inhibition was calculated by normalizing to the pre-dose stimulation response.
Pharmacokinetics (“PK”), pharmacodynamics (“PD”), and safety were monitored. Response was assessed by standard criteria. The level of inhibition of SYK and JAK was determined using a variety of whole blood assays measuring signaling via receptors for the B-cell antigen, IL2, IL4, IL6, and GM-CSF. Serum markers of tumor burden, including CCL3, CCL4, and other markers of inflammation (β2M and CRP), were also being measured.

T3 sequence (Q13188 whole entry): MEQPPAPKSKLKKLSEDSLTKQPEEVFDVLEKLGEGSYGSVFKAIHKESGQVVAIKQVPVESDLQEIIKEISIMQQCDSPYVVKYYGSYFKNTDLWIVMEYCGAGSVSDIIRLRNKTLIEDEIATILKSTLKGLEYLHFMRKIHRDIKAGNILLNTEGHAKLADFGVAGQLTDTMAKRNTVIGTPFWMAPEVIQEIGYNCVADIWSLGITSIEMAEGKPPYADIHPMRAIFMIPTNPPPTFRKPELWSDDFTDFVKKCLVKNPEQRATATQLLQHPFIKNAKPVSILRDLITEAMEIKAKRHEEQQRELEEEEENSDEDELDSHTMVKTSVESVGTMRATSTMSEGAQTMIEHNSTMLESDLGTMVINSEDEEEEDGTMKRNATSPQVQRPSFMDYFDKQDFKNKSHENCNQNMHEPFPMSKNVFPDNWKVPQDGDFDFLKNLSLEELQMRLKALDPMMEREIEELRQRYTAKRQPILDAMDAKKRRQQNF
T4 sequence (Q13043 whole entry): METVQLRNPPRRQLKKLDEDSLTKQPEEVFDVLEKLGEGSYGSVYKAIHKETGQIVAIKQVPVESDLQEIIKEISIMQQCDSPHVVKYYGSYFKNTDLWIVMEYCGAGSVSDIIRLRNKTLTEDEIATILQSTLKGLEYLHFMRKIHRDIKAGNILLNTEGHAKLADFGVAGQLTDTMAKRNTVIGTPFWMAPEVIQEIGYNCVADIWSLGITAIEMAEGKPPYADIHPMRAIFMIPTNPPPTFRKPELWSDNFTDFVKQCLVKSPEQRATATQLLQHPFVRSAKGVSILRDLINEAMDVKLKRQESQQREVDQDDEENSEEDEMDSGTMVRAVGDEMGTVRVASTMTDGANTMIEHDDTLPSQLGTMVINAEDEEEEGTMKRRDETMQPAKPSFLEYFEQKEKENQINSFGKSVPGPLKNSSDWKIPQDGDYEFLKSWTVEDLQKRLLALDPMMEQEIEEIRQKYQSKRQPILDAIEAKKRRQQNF
T1 sequence (P51812 whole entry): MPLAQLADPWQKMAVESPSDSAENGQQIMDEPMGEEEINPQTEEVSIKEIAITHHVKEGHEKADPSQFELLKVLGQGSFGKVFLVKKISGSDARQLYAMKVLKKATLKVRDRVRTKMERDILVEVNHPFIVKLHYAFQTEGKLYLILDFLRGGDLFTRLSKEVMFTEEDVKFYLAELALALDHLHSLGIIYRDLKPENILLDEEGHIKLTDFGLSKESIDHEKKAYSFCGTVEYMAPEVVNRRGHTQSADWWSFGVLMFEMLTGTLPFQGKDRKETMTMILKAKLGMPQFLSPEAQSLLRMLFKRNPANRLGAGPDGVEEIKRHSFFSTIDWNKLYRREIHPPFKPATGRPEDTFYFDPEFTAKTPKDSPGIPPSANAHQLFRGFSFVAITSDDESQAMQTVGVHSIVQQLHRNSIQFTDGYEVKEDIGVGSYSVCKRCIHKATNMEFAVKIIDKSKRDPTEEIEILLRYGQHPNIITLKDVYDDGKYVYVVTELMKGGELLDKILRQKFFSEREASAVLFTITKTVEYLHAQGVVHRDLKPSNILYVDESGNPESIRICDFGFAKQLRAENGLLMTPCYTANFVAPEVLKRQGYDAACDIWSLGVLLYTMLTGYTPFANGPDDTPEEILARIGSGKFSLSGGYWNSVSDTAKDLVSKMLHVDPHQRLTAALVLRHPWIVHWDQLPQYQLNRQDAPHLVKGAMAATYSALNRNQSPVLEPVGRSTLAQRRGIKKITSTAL
T11 sequence (Q08881 whole entry): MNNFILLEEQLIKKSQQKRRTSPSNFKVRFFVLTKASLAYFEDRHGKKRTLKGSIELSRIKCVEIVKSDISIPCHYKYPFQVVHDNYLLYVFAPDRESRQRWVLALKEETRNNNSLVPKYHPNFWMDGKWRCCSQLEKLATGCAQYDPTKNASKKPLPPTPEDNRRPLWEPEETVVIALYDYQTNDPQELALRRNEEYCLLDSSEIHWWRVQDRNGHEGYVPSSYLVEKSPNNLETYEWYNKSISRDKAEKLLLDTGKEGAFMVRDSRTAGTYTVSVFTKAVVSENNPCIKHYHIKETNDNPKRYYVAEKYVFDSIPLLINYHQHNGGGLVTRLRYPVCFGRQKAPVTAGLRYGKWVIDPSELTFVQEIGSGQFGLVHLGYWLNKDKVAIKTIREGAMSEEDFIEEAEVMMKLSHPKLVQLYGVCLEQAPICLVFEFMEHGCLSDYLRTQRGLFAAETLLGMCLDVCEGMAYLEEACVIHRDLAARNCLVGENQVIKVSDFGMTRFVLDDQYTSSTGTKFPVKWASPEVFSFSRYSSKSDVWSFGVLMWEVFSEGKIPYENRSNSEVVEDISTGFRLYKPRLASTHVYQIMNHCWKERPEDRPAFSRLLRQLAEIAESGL
T16 sequence (Q12851 whole entry): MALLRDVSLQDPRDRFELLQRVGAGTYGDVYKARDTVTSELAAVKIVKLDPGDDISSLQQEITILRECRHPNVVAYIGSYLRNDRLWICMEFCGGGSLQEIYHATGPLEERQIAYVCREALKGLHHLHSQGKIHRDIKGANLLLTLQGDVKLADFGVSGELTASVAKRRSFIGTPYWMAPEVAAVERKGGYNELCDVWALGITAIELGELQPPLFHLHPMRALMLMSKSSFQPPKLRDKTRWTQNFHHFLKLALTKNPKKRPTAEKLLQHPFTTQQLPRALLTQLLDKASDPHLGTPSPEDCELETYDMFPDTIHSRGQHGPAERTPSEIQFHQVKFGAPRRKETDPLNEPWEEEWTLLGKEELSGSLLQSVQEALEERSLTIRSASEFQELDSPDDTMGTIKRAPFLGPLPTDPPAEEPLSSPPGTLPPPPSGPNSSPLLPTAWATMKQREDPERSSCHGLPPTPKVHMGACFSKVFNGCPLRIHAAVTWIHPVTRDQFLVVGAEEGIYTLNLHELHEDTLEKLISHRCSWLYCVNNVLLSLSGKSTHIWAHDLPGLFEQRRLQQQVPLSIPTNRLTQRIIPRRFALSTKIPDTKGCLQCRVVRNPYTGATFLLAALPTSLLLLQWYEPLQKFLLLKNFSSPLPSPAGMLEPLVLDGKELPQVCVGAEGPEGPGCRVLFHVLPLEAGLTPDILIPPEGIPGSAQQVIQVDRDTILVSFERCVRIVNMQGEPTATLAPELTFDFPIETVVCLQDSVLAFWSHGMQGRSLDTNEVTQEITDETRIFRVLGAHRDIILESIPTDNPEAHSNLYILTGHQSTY
T17 sequence (O60674 whole entry): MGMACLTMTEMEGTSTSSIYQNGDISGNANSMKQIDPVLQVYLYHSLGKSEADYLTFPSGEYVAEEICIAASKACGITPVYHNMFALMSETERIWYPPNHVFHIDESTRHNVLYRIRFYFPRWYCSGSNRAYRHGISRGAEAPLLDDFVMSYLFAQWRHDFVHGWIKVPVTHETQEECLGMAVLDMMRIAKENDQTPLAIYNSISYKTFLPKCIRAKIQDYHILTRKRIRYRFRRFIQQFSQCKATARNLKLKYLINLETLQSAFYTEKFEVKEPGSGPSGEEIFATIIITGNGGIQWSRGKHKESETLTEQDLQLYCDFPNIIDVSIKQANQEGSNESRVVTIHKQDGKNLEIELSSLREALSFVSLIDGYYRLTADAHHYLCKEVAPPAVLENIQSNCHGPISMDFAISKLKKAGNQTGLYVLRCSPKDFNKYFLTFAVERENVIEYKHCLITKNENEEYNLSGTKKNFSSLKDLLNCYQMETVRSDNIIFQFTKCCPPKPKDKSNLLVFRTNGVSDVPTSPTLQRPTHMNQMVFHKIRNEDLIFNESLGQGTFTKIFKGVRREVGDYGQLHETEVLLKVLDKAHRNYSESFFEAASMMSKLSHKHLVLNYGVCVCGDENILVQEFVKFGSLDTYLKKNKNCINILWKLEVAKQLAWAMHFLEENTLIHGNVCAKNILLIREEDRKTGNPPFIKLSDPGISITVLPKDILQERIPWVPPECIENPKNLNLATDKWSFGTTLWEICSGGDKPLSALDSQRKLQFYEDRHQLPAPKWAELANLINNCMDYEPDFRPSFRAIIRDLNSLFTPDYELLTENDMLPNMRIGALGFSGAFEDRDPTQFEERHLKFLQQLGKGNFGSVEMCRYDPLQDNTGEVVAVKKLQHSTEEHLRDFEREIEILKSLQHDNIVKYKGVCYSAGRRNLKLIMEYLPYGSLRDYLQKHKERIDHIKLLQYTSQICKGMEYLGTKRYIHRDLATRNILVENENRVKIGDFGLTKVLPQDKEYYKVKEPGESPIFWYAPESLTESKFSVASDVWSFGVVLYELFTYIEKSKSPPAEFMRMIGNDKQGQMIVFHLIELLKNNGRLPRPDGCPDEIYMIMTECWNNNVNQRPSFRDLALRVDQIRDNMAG
T13 sequence (O60285 whole entry): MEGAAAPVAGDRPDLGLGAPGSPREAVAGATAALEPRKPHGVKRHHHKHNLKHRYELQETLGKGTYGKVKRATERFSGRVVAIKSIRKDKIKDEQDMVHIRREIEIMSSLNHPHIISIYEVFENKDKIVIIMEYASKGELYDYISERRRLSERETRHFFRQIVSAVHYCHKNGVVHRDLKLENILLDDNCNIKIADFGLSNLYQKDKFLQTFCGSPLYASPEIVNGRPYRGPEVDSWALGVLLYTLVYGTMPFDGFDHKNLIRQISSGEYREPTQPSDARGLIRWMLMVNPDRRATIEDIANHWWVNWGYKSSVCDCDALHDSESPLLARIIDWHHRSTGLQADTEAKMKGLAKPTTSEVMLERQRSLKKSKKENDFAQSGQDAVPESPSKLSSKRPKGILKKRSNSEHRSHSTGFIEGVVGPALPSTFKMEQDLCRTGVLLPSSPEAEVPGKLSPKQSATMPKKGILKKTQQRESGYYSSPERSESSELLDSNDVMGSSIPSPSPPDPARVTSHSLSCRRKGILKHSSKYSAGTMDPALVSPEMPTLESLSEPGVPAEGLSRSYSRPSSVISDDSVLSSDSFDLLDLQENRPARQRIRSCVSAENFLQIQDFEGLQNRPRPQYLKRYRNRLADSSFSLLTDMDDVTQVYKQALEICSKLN

Structure (SMILES): CCS(=O)(=O)N1CCN(c2ccc(Nc3ncc(C(N)=O)c(NC4CC4)n3)cc2)CC1 [cerdulatinib, 4-(cyclopropylamino)-2-(4-(4-(ethylsulfonyl)piperazin-1-yl)phenylamino)pyrimidine-5-carboxamide]
- BrdU incorporation (proliferation) [1]: responded equally well
- sensitivity of CLL cells with high-risk genetic abnormalities (del (11q), trisomy 12, del(17p)) versus del (13q) or none [2]: more sensitive
- sensitivity of CLL cells with unmutated IGHV (N=33) versus mutated IGHV (N=27) ([2]; P=0.0395): more sensitive
- IC50 [3]: 14 nM
- IC50 [4]: 500 nM
- IC50 [5]: 20 nM
- IC50 [6]: 5 nM
- IC50 [7]: 15 nM
- IC50 [8]: 4 nM
- IC50 [9]: 10 nM
- IC50 [10]: 105 nM
- IC50 [11]: 28 nM
- IC50 [12]: 90 nM
- IC50 [13]: 0.5 nM
- IC50 [14]: 13 nM
- IC50 [15]: 194 nM
- IC50 [16]: 51 nM
- IC50 [17]: 4 nM
- IC50 [18]: 42 nM
- IC50 [19]: 5 nM
- IC50 [20]: 18 nM
- concentration (achievable in patients) at which BCR and IL-4 mediated signalling was overcome [21]: ~2.2 µM
- IC50 [22]: 6 nM
- IC50 [23]: 200 nM
- IC50 [24]: > 4000 nM
- activity against DLBCL cell lines ([25]; 2 μM): broadly active
- induction of apoptosis in cell lines ([25]; 2 μM): induced apoptosis in the majority of cell lines
- additional cell lines that underwent cell cycle arrest ([25]; panel of 15 cell lines): 2
- number of cell lines that underwent apoptosis ([25]; panel of 15 cell lines, ABC and GCB subtypes): 9
- response of DB, TOLEDO, and RCK8 cell lines ([25]; three of the 15 cell lines): resistant
- concentration required to induce apoptosis and/or cell cycle arrest ([25]; variable, generally observed): ~2 µM
- inhibition of the purified kinases of Table 1 in the panel screen [26]: > 80%
- inhibition at 40 mg [27]: 63 to 78%
